According to US7314864B1, “Humanin, a polypeptide suppressing neuronal death” (Keio University, priority 1999, dated 2008):

Key:
[1] = tested on: primary cultured cortical neurons treated with Aβ1-43; assay: Aβ1-43-induced cell damage of primary cultured cortical neurons, LDH release; type: cell-based, mouse; conditions: 100 ng/ml
Description: Primary culture of mouse cortical neurons was performed in poly-D-lysine-coated 24-well plates (Sumitomo Bakelite) in the absence of serum and in the presence of N2 supplement, as described in literature (Ecksioglu, Y. Z. et al. (1994) Brain Res. 644, 282-90). The purity of neurons prepared according to the method was >98%. The prepared neurons (1.25×10^5/well, 250 μl media/well) were preincubated in the absence or presence of 10 nM or 10 μM sHN polypeptides for 16 hours; and were treated with 25 μM Aβ1-43 in the absence or presence of sHN polypeptides at the same concentrations for 24 to 72 hours. […]
Trypan blue exclusion assay was performed as follows. […] Within 3 minutes of the trypan blue solution addition, stained cells were counted. Cell mortality was determined [100-cell survival rate (%)] based on the stained cell count. […] Specifically, 6 μM Calcein-AM (3′, 6′-Di-(O-acetyl)-2′-7′-bis[N,N-bis(carboxymethyl)aminomethyl]fluorescein, tetraacetoxymethyl ester; Dojindo, Cat. #349-07201) was added to the neurons; and 30 minutes or longer after Calcein-AM treatment, fluorescence (ex=490 nm, em=515 nm) was observed by fluorescence microscopy, and measured by a spectrometer. Specific fluorescence was calculated by subtracting basal fluorescence from total fluorescence. […]

[2] = tested on: primary cultured cortical neurons treated with Aβ1-43; assay: Aβ1-43-induced cell death of primary cultured cortical neurons, trypan blue exclusion assay; type: cell-based; conditions: 100 ng/ml

NGF: NGF, tested at 100 ng/ml against Aβ-induced neuronal death [reference compound]
effect on increased LDH release induced by Aβ [1]: did not show effects | effect on cell death of neurons induced by Aβ [2]: did not show effects
